Laboratory results: patent publication US6979686B1, “Substituted pyrazoles as p38 kinase inhibitors” (Pharmacia Corporation, priority 2001, dated 2005)
Structures can show the parent of a compound that is named as a salt.

Each compound was assayed against T1, human p38 kinase alpha (Homo sapiens, UniProt Q16539) (assay: p38 kinase in vitro assay, phosphorylation of biotinylated PHAS-I with 32P-ATP). Conditions: @ 1.0 uM.
T1 construct: GST (N, cleaved yes); made in house; host or cells: E. coli DH10B
T1 sequence (Q16539 whole entry): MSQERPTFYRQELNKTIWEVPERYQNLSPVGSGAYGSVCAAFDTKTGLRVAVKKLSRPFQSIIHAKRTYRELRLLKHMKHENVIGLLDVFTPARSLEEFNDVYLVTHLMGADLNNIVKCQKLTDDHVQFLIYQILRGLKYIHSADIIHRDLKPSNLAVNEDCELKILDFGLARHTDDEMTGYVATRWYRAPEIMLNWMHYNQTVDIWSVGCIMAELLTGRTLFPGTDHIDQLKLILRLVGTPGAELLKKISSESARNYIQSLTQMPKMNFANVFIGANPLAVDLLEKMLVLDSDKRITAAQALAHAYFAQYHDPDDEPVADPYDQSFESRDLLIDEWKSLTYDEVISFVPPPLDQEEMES
Assay type: biochemical

P38 alpha kinase % inhib @ conc. [% @] | P38 alpha kinase % inhib @ conc. (uM) [% @] | Compound
87.0 |  | CC(C)(C)C(=O)NCCCc1[nH]nc(-c2ccc(F)cc2)c1-c1ccncc1 [Example B-1229]
89.0 |  | CCNC(=O)NCCCc1[nH]nc(-c2ccc(F)cc2)c1-c1ccncc1 [Example B-1226]
 | 90.0 | CCOC(=O)c1ccc(NC(=O)NCCc2[nH]nc(-c3ccc(F)cc3)c2-c2ccncc2)cc1 [Example B-0949]
 | 55.0 | COc1ccc(CC(=O)NCCc2[nH]nc(-c3ccc(F)cc3)c2-c2ccncc2)cc1 [Example B-1000]
 | 80.0 | O=C(NCCCc1[nH]nc(-c2ccc(F)cc2)c1-c1ccncc1)c1ccc(F)c(F)c1F [Example B-1174]
82.0 |  | O=C(NCCCc1[nH]nc(-c2ccc(F)cc2)c1-c1ccncc1)NCCc1ccccc1 [Example B-1221]
 | 70.0 | COc1ccc(S(=O)(=O)NCCc2[nH]nc(-c3ccc(F)cc3)c2-c2ccncc2)cc1OC [Example B-1028]

Same assay, conditions: @ 1.0 uM; read-out: P38 alpha kinase % inhib @ conc.

inhibition at 1 µM [%] | Compound
70 | COCC(=O)NCc1[nH]nc(-c2ccc(F)cc2)c1-c1ccncc1 [Example B-0003]

Same assay, conditions: @ 10.0 uM

P38 alpha kinase % inhib @ conc. [% @] | P38 alpha kinase IC50, uM or % inhib @ conc. (uM): % inhib [% @] | Compound
75.0 |  | CCCCC(C)NC(=O)Cn1nc(-c2ccc(F)cc2)c(-c2ccncc2)c1C (stereo not drawn) [Example B-2319]
 | 86.0 | Cc1c(-c2ccncc2)c(-c2ccc(F)cc2)nn1CC(=O)Nc1ccccc1C(=O)NC(C)c1ccccc1 (stereo not drawn) [Example B-2456]
65.0 |  | CCN1CCN(C(=O)Cn2nc(-c3ccc(F)cc3)c(-c3ccncc3)c2C)CC1 [Example B-2368]
74.0 |  | Cc1c(-c2ccncc2)c(-c2ccc(F)cc2)nn1CC(=O)NC(C)c1cccc2ccccc12 (stereo not drawn) [Example B-2331]
 | 67.0 | Cc1c(-c2ccncc2)c(-c2ccc(F)cc2)nn1CC(=O)Nc1ccc(CSc2ccc(Cl)cc2)cc1 [Example B-2461]
 | 77.0 | CCCCNS(=O)(=O)c1cccc(NC(=O)Cn2nc(-c3ccc(F)cc3)c(-c3ccncc3)c2C)c1 [Example B-2440]
70.0 |  | Cc1c(-c2ccncc2)c(-c2ccc(F)cc2)nn1CC(=O)NC1CCN(Cc2ccccc2)CC1 [Example B-2332]

Same assay, conditions: Table 8; 1% DMSO; read-out: p38α Kinase Assay IC50

IC50 [nM] | Compound
850 | O=C(c1n[nH]c(-c2ccc(F)cc2)c1-c1ccncc1)N1CCNCC1 [A-314, Step 1, 1-[[5-(4-fluorophenyl)-4-(4-pyridinyl)-1H-pyrazol-3-yl]carbonyl]piperazine, monhydrate]
290 | C#CCn1nc(N2CCNCC2)c(-c2ccncc2)c1-c1ccc(Cl)cc1 [Example A-318, 1-[5-(4-chlorophenyl)-4-(4-pyridinyl)-1-(2-propynyl)-1H-pyrazol-3-yl]piperazine, trihydrochloride monohydrate]

Same assay, conditions: activated human p38 kinase alpha, PHAS-I substrate, 50 μM unlabeled ATP; read-out: p38 kinase IC50

IC50 [nM] | Compound
1300 | Cc1n[nH]c(-c2ccccc2F)c1-c1ccncc1 [Example A-40]

Same assay, conditions: in vitro P38-alpha kinase inhibition; read-out: P38 alpha kinase IC50

IC50 [nM] | Compound
440 | O=C(NCCc1[nH]nc(-c2ccc(F)cc2)c1-c1ccncc1)c1ccc(Cl)cc1Cl [Example B-1144]
260 | Cc1noc(C)c1C(=O)NCCc1[nH]nc(-c2ccc(F)cc2)c1-c1ccncc1 [Example B-1157]
1550 | O=C(NCCc1[nH]nc(-c2ccc(F)cc2)c1-c1ccncc1)c1cc(F)c(F)cc1F [Example B-1149]
< 100 | O=S(=O)(NCCc1[nH]nc(-c2ccc(F)cc2)c1-c1ccncc1)c1ccccc1C(F)(F)F [Example B-1086]
2550 | O=C(NCCc1[nH]nc(-c2ccc(F)cc2)c1-c1ccncc1)c1cccc2ccccc12 [Example B-1128]
< 100 | Cc1ccccc1S(=O)(=O)NCCc1[nH]nc(-c2ccc(F)cc2)c1-c1ccncc1 [Example B-1097]
560 | O=C(O)c1ccccc1S(=O)(=O)NCCc1[nH]nc(-c2ccc(F)cc2)c1-c1ccncc1 [Example B-1065]
< 100 | O=S(=O)(NCCc1[nH]nc(-c2ccc(F)cc2)c1-c1ccncc1)c1ccccc1Br [Example B-1082]
320 | O=C(NCCc1[nH]nc(-c2ccc(F)cc2)c1-c1ccncc1)c1c(F)cccc1F [Example B-1151]

Second part, the compound before the results:

Compound | IC50 [nM]
Cc1ccccc1S(=O)(=O)NC(C)c1[nH]nc(-c2ccc(F)cc2)c1-c1ccncc1 (stereo not drawn) [Example B-0646] | 260
Cc1ccc(F)cc1S(=O)(=O)NC(C)c1[nH]nc(-c2ccc(F)cc2)c1-c1ccncc1 (stereo not drawn) [Example B-0628] | 23
CC(NC(=O)c1cc2ccccc2s1)c1[nH]nc(-c2ccc(F)cc2)c1-c1ccncc1 (stereo not drawn) [Example B-0673] | 8540
CC(NS(=O)(=O)c1cc(Cl)ccc1Cl)c1[nH]nc(-c2ccc(F)cc2)c1-c1ccncc1 (stereo not drawn) [Example B-0615] | 80
CCOC(=O)NC(Cc1ccccc1)c1[nH]nc(-c2ccc(F)cc2)c1-c1ccncc1 (stereo not drawn) [Example B-0793] | 300
CC(NS(=O)(=O)c1ccc(F)cc1)c1[nH]nc(-c2ccc(F)cc2)c1-c1ccncc1 (stereo not drawn) [Example B-0562] | 220
O=S(=O)(NC(Cc1ccccc1)c1[nH]nc(-c2ccc(F)cc2)c1-c1ccncc1)C(F)(F)F (stereo not drawn) [Example B-0713] | 4300
CCCS(=O)(=O)NC(C)c1[nH]nc(-c2ccc(F)cc2)c1-c1ccncc1 (stereo not drawn) [Example B-0570] | 270
COc1ccc(S(=O)(=O)NC(C)c2[nH]nc(-c3ccc(F)cc3)c2-c2ccncc2)cc1OC (stereo not drawn) [Example B-0577] | 91
CC(NS(=O)(=O)c1ccc(CNC(=O)c2ccccc2)s1)c1[nH]nc(-c2ccc(F)cc2)c1-c1ccncc1 (stereo not drawn) [Example B-0657] | 170
COc1ccccc1C(=O)NC(C)c1[nH]nc(-c2ccc(F)cc2)c1-c1ccncc1 (stereo not drawn) [Example B-0544] | 1120
CC(NC(=O)c1cccnc1)c1[nH]nc(-c2ccc(F)cc2)c1-c1ccncc1 (stereo not drawn) [Example B-0554] | 2580
O=C(Nc1cccc(F)c1)NC(Cc1ccccc1)c1[nH]nc(-c2ccc(F)cc2)c1-c1ccncc1 (stereo not drawn) [Example B-0785] | 23000
O=S(=O)(NC(Cc1ccccc1)c1[nH]nc(-c2ccc(F)cc2)c1-c1ccncc1)c1cccs1 (stereo not drawn) [Example B-0720] | 1300
C[C@@H](NS(=O)(=O)c1ccc(Br)cc1)c1[nH]nc(-c2ccc(F)cc2)c1-c1ccncc1 [Example B-0432] | < 100
CC(NS(=O)(=O)c1cccc2cccnc12)c1[nH]nc(-c2ccc(F)cc2)c1-c1ccncc1 (stereo not drawn) [Example B-0620] | 1590
CN(C)C(=O)NC(Cc1ccccc1)c1[nH]nc(-c2ccc(F)cc2)c1-c1ccncc1 (stereo not drawn) [Example B-0774] | 1500
CC(NC(=O)c1ccccc1C(F)(F)F)c1[nH]nc(-c2ccc(F)cc2)c1-c1ccncc1 (stereo not drawn) [Example B-0545] | 1060
O=C(NC(Cc1ccccc1)c1[nH]nc(-c2ccc(F)cc2)c1-c1ccncc1)c1ccno1 (stereo not drawn) [Example B-0840] | 630
COc1ccc(NC(=O)NC(Cc2ccccc2)c2[nH]nc(-c3ccc(F)cc3)c2-c2ccncc2)cc1 (stereo not drawn) [Example B-0786] | 24000
CC(NS(=O)(=O)c1ccc2ccccc2c1)c1[nH]nc(-c2ccc(F)cc2)c1-c1ccncc1 (stereo not drawn) [Example B-0617] | 45
C[C@@H](NS(=O)(=O)c1cc(Cl)cc(Cl)c1)c1[nH]nc(-c2ccc(F)cc2)c1-c1ccncc1 [Example B-0464] | < 100
CC(NC(=O)c1ccc(F)c(C(F)(F)F)c1)c1[nH]nc(-c2ccc(F)cc2)c1-c1ccncc1 (stereo not drawn) [Example B-0689] | 14600

Same assay, conditions: in vitro P38-alpha kinase; read-out: P38 alpha kinase IC50

IC50 [nM] | Compound
32 | N#Cc1cccc(C(=O)NCCCc2[nH]nc(-c3ccc(F)cc3)c2-c2ccncc2)c1 [Example B-1328]
33 | O=C(c1c(F)cccc1F)N1CCC(c2[nH]nc(-c3ccc(F)cc3)c2-c2ccncc2)CC1 [Example B-1401]
9 | O=C(NCCCc1[nH]nc(-c2ccc(F)cc2)c1-c1ccncc1)c1c(Cl)cccc1Cl [Example B-1348]
450 | O=C(NCCCc1[nH]nc(-c2ccc(F)cc2)c1-c1ccncc1)c1cccc(Cl)c1Cl [Example B-1333]
97 | O=C(NCCCc1[nH]nc(-c2ccc(F)cc2)c1-c1ccncc1)c1cc(C(F)(F)F)ccc1F [Example B-1335]

Continued, compound first:

Compound | IC50 [nM]
Cc1c(-c2ccncc2)c(-c2ccc(F)cc2)nn1CC(=O)NCCC#N [Example B-2314] | 11000
O=C(NCCCc1[nH]nc(-c2ccc(F)cc2)c1-c1ccncc1)NC1CCN(Cc2ccccc2)CC1 [Example B-1320] | 47
O=S(=O)(c1ccc(Cl)s1)N1CCC(c2[nH]nc(-c3ccc(F)cc3)c2-c2ccncc2)CC1 [Example B-1438] | 2010
Cc1c(-c2ccncc2)c(-c2ccc(F)cc2)nn1CC(=O)NCCCOC(C)C [Example B-2313] | 42300
CNC(=O)N1CCC(c2[nH]nc(-c3ccc(F)cc3)c2-c2ccncc2)CC1 [Example B-1378] | 20
O=S(=O)(Cc1ccccc1)N1CCC(c2[nH]nc(-c3ccc(F)cc3)c2-c2ccncc2)CC1 [Example B-1374] | < 100
Cc1c(-c2ccncc2)c(-c2ccc(F)cc2)nn1CC(=O)NCCCN(C)C [Example B-2304] | 1410
O=S(=O)(NCCCc1[nH]nc(-c2ccc(F)cc2)c1-c1ccncc1)c1ccc(-c2ccccn2)s1 [Example B-1288] | 150
O=C(c1cccc(Br)c1)N1CCC(c2[nH]nc(-c3ccc(F)cc3)c2-c2ccncc2)CC1 [Example B-1365] | 170
COc1cc(CNC(=O)Cn2nc(-c3ccc(F)cc3)c(-c3ccncc3)c2C)cc(OC)c1 [Example B-2305] | 540
O=C(OCc1ccccc1)N1CCC(c2[nH]nc(-c3ccc(F)cc3)c2-c2ccncc2)CC1 [Example B-1428] | < 100
Cc1ccc(C(=O)N2CCC(c3[nH]nc(-c4ccc(F)cc4)c3-c3ccncc3)CC2)cc1 [Example B-1371] | 60
O=C(N1CCC(c2[nH]nc(-c3ccc(F)cc3)c2-c2ccncc2)CC1)C(F)(F)F [Example B-1429] | < 100
O=S(=O)(NCCCc1[nH]nc(-c2ccc(F)cc2)c1-c1ccncc1)c1cc(Cl)c(Cl)s1 [Example B-1257] | 1480
